Results on 3 molecules are retold here after patent US20140194529A1, “USAGE OF NATURAL COMPOUND FOR TREATING INFLAMMATION AND CANCER” (Hong Kong Baptist University, priority 2013, published 2014).

Common to all, as to type: cell-based
The test system of one series is MCF-7. The experiment in a line: Cell cytotoxicity, MTT method. To be noted: read-out: The cell cytotoxicity effect, IC50. The method, then:
(§1) RAW 264.7 cells were obtained from the American Tissue Culture Collection (ATCC). Liver cancer line SMMC-7721 and HepG2, breast cancer lines including MCF-7 and MDA-MB-231 were purchased from cell-bank of Chinese Academy of Sciences, China. These cells were maintained in complete RPMI 1640 medium supplemented with 10% FBS at 37° C. in a humidified 5% CO2 atmosphere.
(§2) SMMC-7721 and HepG2, MCF-7 and MDA-MB-231 were seeded into 96-well plates (3×10^3 cells/well) and allowed to attach overnight. GE were added in final concentration of 50, 25, 12.5, 6.25, 3.125 μg/mL and continually cultured for 72 hours. Taxol as positive drug. Each well was incubated with 20 μl MTT (5 mg/ml in phosphate-buffered saline) for 4 hours at 37° C. Volume of 150 μl DMSO was added after the medium in well discarded and reacted for 10 minutes. Absorbance was measured at 490 nm. The optical density of formazan formed in control (untreated) cells was taken as 100% of viability. Mean value of each concentration (n=3 wells) was obtained.
In general terms: Formazan colour is commonly taken as a measure of viable cells.

The next series has as its system SMMC-7721. The experiment in a line: Cell cytotoxicity, MTT method. Conditions: SMMC-7721, 72 hours, read-out: The cell cytotoxicity effect, IC50. The method, then:
as §1, §2

For the next series, the system named is MDA-MB-231. The experiment in a line: Cell cytotoxicity, MTT method. Conditions: MDA-MB-231, 72 hours. The protocol: as §1, §2
Another series relates to HepG2. Briefly: Cell cytotoxicity, MTT method. To be noted: HepG2, 72 hours, read-out: The cell cytotoxicity effect, IC50. The method, then: as §1, §2
For series [1], the system named is breast cancer lines and liver cancer lines. The experiment in a line: Cell cytotoxicity, MTT method (summary in conclusion). The method, then:
as §1, §2

Series [2] has as its system iNOS-induced NO generation in RAW 264.7 cells. The experiment in a line: NO accumulation in LPS/IFN-γ stimulated RAW 264.7 cells (Griess reaction). To be noted: 24 hours. The protocol: RAW264.7 were maintained in RPMI 1640 medium supplemented with 10% FBS at 37° C. in a humidified 5% CO2 atmosphere. Cells were plated in a 96-well plate (5×10^3 cells/well) and allowed to attach overnight. The cells were then stimulated with 10 U/ml of IFN-γ and 100 ng/ml of LPS for 24 hours in the presence or absence of GE with final concentration of 50, 25, 12.5, 6.25, 3.125 μg/mL, and Indometacin as positive drug.
RAW264.7 were maintained in RPMI 1640 medium supplemented with 10% FBS at 37° C. in a humidified 5% CO2 atmosphere. Cells were plated in a 96-well plate (5×10^3 cells/well) and allowed to attach overnight. For stimulation, the medium was replaced with fresh FBS-free RPMI 1640 for 10 hours, and the cells were then stimulated with 10 U/ml of IFN-γ and 100 ng/ml of LPS for 24 hours in the presence or absence of extractions or fractions.
iNOS function was analyzed with Griess reaction by assay of nitrite concentration in the culture supernatant. Briefly, 100 μl/well of sample was incubated with equal volume of Griess solution (1% sulfanilamide in 5% phosphoric acid+1% α-naphthylamine in distilled water) at room temperature for 10 minutes. The absorbance was evaluated at 540 nm using a calibration curve with a sodium nitrite standard. Percent inhibition was expressed as [1−(NO level of sample/NO level of vehicle treated−control)]×100.
A general note: Nitrite, measured by Griess reagent, commonly stands in for NO production.

Where two headings read alike, the source gives them in different places.

With `CC(=O)O[C@H]1C(=O)[C@@]2(C)[C@H]([C@H](OC(=O)c3ccccc3)[C@]3(O)C[C@H](OC(=O)[C@H](O)[C@@H](NC(=O)c4ccccc4)c4ccccc4)C(C)=C1C3(C)C)[C@]1(OC(C)=O)CO[C@@H]1C[C@@H]2O` [Taxol, reference compound], the concentration for half-maximal inhibition (IC50) (usually the midpoint of a concentration-inhibition curve) in the series with MCF-7 (Homo sapiens, MCF7, MCF-7, 72 hours) turned out to be 0.003 µM; with SMMC-7721 (Homo sapiens), 0.15 µM; with MDA-MB-231 (Homo sapiens, read-out: The cell cytotoxicity effect, IC50), 5 µM; with HepG2 (Homo sapiens), 0.00044 µM.
Turning to Garcimultiflorone E [GE], the “Concentration at which proliferation is inhibited” value in series [1] is recorded as “about 10 μM”. Also, the IC50 is 9.63 µM in the series with MCF-7 (MCF-7, 72 hours); 11.9 µM with SMMC-7721; 13.2 µM in the series with HepG2; 5.78 µM in series [2] (RAW 264.7, 10 U/ml IFN-γ + 100 ng/ml LPS, read-out: The inhibitory effect on NO accumulation, IC50). Further, the “Effect on proliferation (in words)” value in the series on MDA-MB-231 is “no effect”. Also, the “The inhibitory effect on NO accumulation, IC50” value in series [2] (RAW 264.7, 10 U/ml IFN-γ + 100 ng/ml LPS) came to 3.57 µg/mL.
Take `COc1ccc2c(c1)c(CC(=O)O)c(C)n2C(=O)c1ccc(Cl)cc1` [Indometacin, reference compound]: the inhibition at 1 µg/mL in series [2] (Mus musculus, RAW264.7, 1 μg/mL, RAW 264.7, IFN-γ + LPS, read-out: The inhibitory effect on NO accumulation) is 46.5%.
